How the values were obtained:
[1] = test system: Bifidobacterium longum BB-536; experiment: Preliminary Test 1: change over time in medium turbidity (growth curve) with different sugar sources; format: cell-based; conditions: sugar in place of glucose in basic medium; up to 24 hours of cultivation at 37° C.; turbidity 660 nm
Protocol: This test was performed in order to investigate changes over time in medium turbidity and determine if measurement of turbidity after a certain cultivation time is valid for assessing the speed with which the Lactobacilluls bifidus consumes sugar:
Bifidobacterium longum BB-536, which is a microorganism belonging to the genus Bifidobacterium, derived from humans that was separated and identified from the feces of healthy adults by conventional methods (Tomonari Mitsuoka, ed., “Research of Bifidus Bacteria,” pages 40˜60, Zaidanhojin Nihon Bifizusukin Senta (Japan Bifidus Bacteria Center), 1994) was used in this test. Furthermore, this strain is stored by the inventors and is available for any person as needed. […]
First, 0.5 ml of each of the above-mentioned cultivation solutions of Lactobacillus bifidus were inoculated in every 2 of the above-mentioned test media and turbidity was immediately measured with a quartz cell at a wavelength of 660 nm and light path length of 10 mm using a spectrophotometer (Hitachi Seisakusho Co., Ltd.). […] Turbidity was measured under the same conditions as previously described at 2-hour intervals and the mean turbidity of the 2 test tubes was calculated as the determination.
Moreover, basic medium containing glucose was simultaneously used as the control and turbidity was similarly determined. […]

[2] = test system: Bifidobacterium adolescentis BB-102; experiment: Consumption speed-accelerating effect (increase in turbidity after 8 hours, test medium / glucose basic medium); format: cell-based; conditions: for Consumption speed-accelerating effect, Bifidobacterium adolescentis: Table 1, single oligosaccharide in place of glucose; for Consumption speed-accelerating effect, B. adolescentis: Table 2, raffinose + lactulose, total 2.0% in place of 2.0% glucose
Protocol: (§1) Bifidobacterium bifidum BB-225, Bifidobacterium adolescentis BB-102, Bifidobacterium breve BB-308, Bifidobacterium longum BB-536. The basic culture medium and pre-cultivation solution were prepared as in above-mentioned Preliminary Test 1. The test culture medium was prepared using the following 7 types of oligosaccharides, which are widely used as Lactobacillus bifidus growth factor, in place of glucose: Raffinose (Nihon […] Seito Co., Ltd.), lactulose (Morinaga Milk Industry Co., Ltd.), galacto-oligosaccharide (Nisshin Seito Co., Ltd.), lactosucrose (Hayashibara Shoji Co., Ltd.), fructo-oligosaccharide (Meiji Seika Co., Ltd.), isomalto-oligosaccharide (Hayashibara Shoji Co., Ltd.), and xylo-oligosaccharide (Santori Co., Ltd.). Cultivation was performed as in above-mentioned Preliminary Test 1 and the sugar consumption speed was calculated by the following formula and comparative studies were performed, using the increment increase in turbidity of each medium up to 8 hours later as the index. Consumption speed-accelerating effect (fold)=(increase in turbidity after 8 hours in test medium)/(increase in turbidity after 8 hours in basic medium) The basic culture medium and pre-cultivation solution were prepared as for above-mentioned Preliminary Test 1. The test culture medium was prepared changing the total amount of each of the desired raffinose and oligosaccharide to 2.0% in place of the 2.0% glucose in the basic medium and the addition ratio to 13 steps. The oligosaccharides that were used were the same as in above-mentioned Preliminary Test 2, and cultivation, determination of turbidity and assessment of the sugar consumption speed-accelerating activity were performed by the same methods as in above-mentioned Preliminary Test 2.

[3] = test system: Bifidobacterium bifidum BB-225; experiment: as above; format: cell-based; conditions: for Consumption speed-accelerating effect, Bifidobacterium bifidum: Table 1, single oligosaccharide in place of glucose; for Consumption speed-accelerating effect, B. bifidum: Table 2, raffinose + lactulose, total 2.0% in place of 2.0% glucose
Protocol: as §1

[4] = test system: Bifidobacterium breve BB-308; experiment: as above; format: cell-based; conditions: for Consumption speed-accelerating effect, Bifidobacterium breve: Table 1, single oligosaccharide in place of glucose; for Consumption speed-accelerating effect, B breve: Table 2, raffinose + lactulose, total 2.0% in place of 2.0% glucose
Protocol: as §1

[5] = test system: Bifidobacterium longum BB-536; experiment: as above; format: cell-based; conditions: for Consumption speed-accelerating effect, Bifidobacterium longum: Table 1, single oligosaccharide in place of glucose; for Consumption speed-accelerating effect, B longum: Table 2, raffinose + lactulose, total 2.0% in place of 2.0% glucose
Protocol: as §1

[6] = test system: 4 species of Lactobacillus bifidus; experiment: Mean consumption speed-accelerating activity of 4 species of test bacteria; format: cell-based, Bifidobacterium adolescentis, breve, bifidum, longum; conditions: 8 hours; for Mean consumption speed-accelerating activity of 4 species: Table 2, raffinose + lactulose; for Mean consumption speed-accelerating activity of 4 species / Mean consumption speed-accelerating activity of 4 species of test bacteria: total 2.0% in place of 2.0% glucose; for Mean consumption speed-accelerating activity of 4 species of test bacteria: Table 3, raffinose + other oligosaccharide
Protocol: Bifidobacterium bifidum BB-225, Bifidobacterium adolescentis BB-102, Bifidobacterium breve BB-308, Bifidobacterium longum BB-536. Cultivation was performed as in above-mentioned Preliminary Test 1 and the sugar consumption speed was calculated by the following formula and comparative studies were performed, using the increment increase in turbidity of each medium up to 8 hours later as the index. Consumption speed-accelerating effect (fold)=(increase in turbidity after 8 hours in test medium)/(increase in turbidity after 8 hours in basic medium) The same four species of Lactobacillus bifidus as used in above-mentioned Preliminary Test 2 were employed. The basic culture medium and pre-cultivation solution were prepared as for above-mentioned Preliminary Test 1. The test culture medium was prepared changing the total amount of each of the desired raffinose and oligosaccharide to 2.0% in place of the 2.0% glucose in the basic medium and the addition ratio to 13 steps. The oligosaccharides that were used were the same as in above-mentioned Preliminary Test 2, and cultivation, determination of turbidity and assessment of the sugar consumption speed-accelerating activity were performed by the same methods as in above-mentioned Preliminary Test 2. The consumption speed-accelerating effect of each of the 4 strains of Lactobaccilus bifidus tested, as well as the average consumption speed-accelerating effect of the 4 species tested, in a culture medium that used a combination of raffinose and lactulose are shown in Table 2 and the average consumption speed-accelerating effect in each of the 4 species of bacteria tested with various test media other than medium using raffinose and lactulose are shown in Table 3.

Row | SMILES | sugar consumption speed compared with glucose medium (FIG. 1) [1] | Consumption speed-accelerating effect, Bifidobacterium adolescentis [2] [fold] | Consumption speed-accelerating effect, B. adolescentis [2] | Consumption speed-accelerating effect, Bifidobacterium bifidum [3] [fold] | Consumption speed-accelerating effect, B. bifidum [3] | Consumption speed-accelerating effect, Bifidobacterium breve [4] [fold] | Consumption speed-accelerating effect, B breve [4] | Consumption speed-accelerating effect, Bifidobacterium longum [5] [fold] | Consumption speed-accelerating effect, B longum [5] | consumption speed-accelerating activity by Lactobacillus bifidus (in words) ([6]; 4 species, compared with glucose medium) | Mean consumption speed-accelerating activity of 4 species [6] | Mean consumption speed-accelerating activity of 4 species of test bacteria [6] | availability for Bifidobacterium bifidus (in words) ([3]; single oligosaccharide in place of glucose)
1 | OC[C@H]1O[C@@H](O[C@@H]2[C@@H](CO)OC(O)(CO)[C@H]2O)[C@H](O)[C@@H](O)[C@H]1O (mixture of isomers) [Lactulose] | approximately the same sugar consumption speed as the medium that used glucose | 0.97 | (0.97) fold | 0.96 | (0.96) fold | 1.08 | (1.08) fold | 0.92 | (0.92) fold | relatively strong consumption speed-accelerating activity | (0.98) fold |  | 
2 | OC[C@H]1O[C@@H](O[C@H]2[C@H](O)[C@@H](O)[C@@H](O[C@]3(CO)O[C@H](CO)[C@@H](O)[C@@H]3O)O[C@@H]2CO)[C@H](O)[C@@H](O)[C@H]1O [Lacto-sucrose, lactosucrose] |  | 0.83 |  | 0.03 |  | 0.87 |  | 0.78 |  |  |  | (0.63) fold | 
3 | OC[C@H]1O[C@H](OC[C@H]2O[C@H](O[C@]3(CO)O[C@H](CO)[C@@H](O)[C@@H]3O)[C@H](O)[C@@H](O)[C@@H]2O)[C@H](O)[C@@H](O)[C@H]1O [Raffinose] | higher consumption speed than the medium that used glucose | 1.02 | (1.02) fold | 0.02 | (0.02) fold | 1.15 | (1.15) fold | 1.09 | (1.09) fold |  | (0.82) fold | (0.82) fold | did not show availability

— patent publication US20020015990A1, “LACTOBACILLUS BIFIDUS GROWTH PROMOTING COMPOSITION AND USE THEREOF” (priority 1996, published 2002)
